Results from article PMC11864979, “First-in-class ultralong-target-residence-time p38α inhibitors as a mitosis-targeted therapy for colorectal cancer” (Nature Cancer, 2025).
Where two headings read alike, the source gives them in different places.

How the values were obtained:
Assay in all cases: selectivity profiling in a panel of 340 wild-type kinases (Reaction Biology Europe)
Assay type in all cases: binding
340 wild-type kinases [1] = target: T1, 340 wild-type kinases (Homo sapiens, UniProt O94806)
T1 construct: purchased Reaction Biology Europe
T1 sequence (O94806 1-890): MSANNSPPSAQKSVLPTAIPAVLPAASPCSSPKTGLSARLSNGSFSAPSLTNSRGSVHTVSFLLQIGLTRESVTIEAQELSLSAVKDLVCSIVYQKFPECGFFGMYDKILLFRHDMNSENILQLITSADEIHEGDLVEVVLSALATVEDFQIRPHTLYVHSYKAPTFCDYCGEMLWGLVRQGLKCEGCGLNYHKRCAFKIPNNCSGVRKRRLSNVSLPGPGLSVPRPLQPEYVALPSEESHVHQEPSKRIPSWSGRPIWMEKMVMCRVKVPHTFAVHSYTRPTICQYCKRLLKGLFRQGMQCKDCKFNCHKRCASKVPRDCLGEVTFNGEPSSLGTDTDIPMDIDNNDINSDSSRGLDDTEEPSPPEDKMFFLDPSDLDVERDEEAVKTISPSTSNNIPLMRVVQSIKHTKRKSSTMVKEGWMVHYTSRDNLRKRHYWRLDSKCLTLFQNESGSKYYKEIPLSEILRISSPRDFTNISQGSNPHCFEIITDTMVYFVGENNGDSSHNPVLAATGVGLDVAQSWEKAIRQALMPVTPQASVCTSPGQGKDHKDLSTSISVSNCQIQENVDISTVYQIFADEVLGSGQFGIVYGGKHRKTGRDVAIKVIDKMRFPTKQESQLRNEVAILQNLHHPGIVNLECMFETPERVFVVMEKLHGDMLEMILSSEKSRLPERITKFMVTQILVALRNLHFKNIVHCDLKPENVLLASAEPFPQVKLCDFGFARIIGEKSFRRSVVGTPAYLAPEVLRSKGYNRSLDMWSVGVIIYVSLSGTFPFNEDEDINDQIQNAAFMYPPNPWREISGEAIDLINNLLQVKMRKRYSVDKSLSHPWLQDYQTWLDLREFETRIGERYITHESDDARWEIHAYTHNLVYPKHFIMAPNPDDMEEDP

340 wild-type kinases [2] = target: T2, 340 wild-type kinases (Homo sapiens, UniProt Q9H2X6)
T2 construct: purchased Reaction Biology Europe

340 wild-type kinases [3] = target: T3, 340 wild-type kinases (Homo sapiens, UniProt P28482)
T3 construct: purchased Reaction Biology Europe

340 wild-type kinases [4] = target: T4, 340 wild-type kinases (Homo sapiens, UniProt O14965)
T4 construct: purchased Reaction Biology Europe
T4 sequence (O14965 1-403): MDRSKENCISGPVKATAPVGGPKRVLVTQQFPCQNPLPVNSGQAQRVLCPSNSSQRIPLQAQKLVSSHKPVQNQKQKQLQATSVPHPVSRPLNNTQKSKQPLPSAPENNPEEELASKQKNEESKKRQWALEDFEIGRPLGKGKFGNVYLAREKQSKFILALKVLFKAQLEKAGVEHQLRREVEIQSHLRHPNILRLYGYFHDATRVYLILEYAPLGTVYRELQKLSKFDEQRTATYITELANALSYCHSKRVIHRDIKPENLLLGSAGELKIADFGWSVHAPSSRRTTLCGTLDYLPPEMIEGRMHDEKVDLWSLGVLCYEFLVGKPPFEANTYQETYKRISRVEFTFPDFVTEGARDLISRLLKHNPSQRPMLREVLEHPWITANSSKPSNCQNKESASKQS

340 wild-type kinases [5] = target: T5, 340 wild-type kinases (Homo sapiens, UniProt O60285)
T5 construct: purchased Reaction Biology Europe
T5 sequence (O60285 1-661): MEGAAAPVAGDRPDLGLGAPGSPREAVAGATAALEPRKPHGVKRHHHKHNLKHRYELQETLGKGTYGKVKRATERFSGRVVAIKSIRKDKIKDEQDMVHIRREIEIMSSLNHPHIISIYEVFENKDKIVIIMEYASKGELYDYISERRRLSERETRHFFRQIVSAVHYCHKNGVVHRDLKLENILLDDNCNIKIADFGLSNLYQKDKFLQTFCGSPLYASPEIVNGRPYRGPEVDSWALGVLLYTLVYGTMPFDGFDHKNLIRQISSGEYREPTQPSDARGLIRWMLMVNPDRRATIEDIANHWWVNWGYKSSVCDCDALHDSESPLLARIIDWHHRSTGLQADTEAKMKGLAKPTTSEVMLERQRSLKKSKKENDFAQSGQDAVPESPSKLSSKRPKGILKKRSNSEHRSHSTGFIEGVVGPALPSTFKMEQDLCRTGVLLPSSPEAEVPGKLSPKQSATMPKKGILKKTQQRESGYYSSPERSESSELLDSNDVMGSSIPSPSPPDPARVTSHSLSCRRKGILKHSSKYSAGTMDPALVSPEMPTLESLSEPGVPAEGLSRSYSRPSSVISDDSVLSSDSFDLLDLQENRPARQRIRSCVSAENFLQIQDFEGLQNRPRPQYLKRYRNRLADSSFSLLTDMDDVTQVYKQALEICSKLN

340 wild-type kinases [6] = target: T6, 340 wild-type kinases (Homo sapiens, UniProt P17948)
T6 construct: purchased Reaction Biology Europe

340 wild-type kinases [7] = target: T7, 340 wild-type kinases (Homo sapiens, UniProt Q16620)
T7 construct: purchased Reaction Biology Europe
T7 sequence (Q16620 32-822): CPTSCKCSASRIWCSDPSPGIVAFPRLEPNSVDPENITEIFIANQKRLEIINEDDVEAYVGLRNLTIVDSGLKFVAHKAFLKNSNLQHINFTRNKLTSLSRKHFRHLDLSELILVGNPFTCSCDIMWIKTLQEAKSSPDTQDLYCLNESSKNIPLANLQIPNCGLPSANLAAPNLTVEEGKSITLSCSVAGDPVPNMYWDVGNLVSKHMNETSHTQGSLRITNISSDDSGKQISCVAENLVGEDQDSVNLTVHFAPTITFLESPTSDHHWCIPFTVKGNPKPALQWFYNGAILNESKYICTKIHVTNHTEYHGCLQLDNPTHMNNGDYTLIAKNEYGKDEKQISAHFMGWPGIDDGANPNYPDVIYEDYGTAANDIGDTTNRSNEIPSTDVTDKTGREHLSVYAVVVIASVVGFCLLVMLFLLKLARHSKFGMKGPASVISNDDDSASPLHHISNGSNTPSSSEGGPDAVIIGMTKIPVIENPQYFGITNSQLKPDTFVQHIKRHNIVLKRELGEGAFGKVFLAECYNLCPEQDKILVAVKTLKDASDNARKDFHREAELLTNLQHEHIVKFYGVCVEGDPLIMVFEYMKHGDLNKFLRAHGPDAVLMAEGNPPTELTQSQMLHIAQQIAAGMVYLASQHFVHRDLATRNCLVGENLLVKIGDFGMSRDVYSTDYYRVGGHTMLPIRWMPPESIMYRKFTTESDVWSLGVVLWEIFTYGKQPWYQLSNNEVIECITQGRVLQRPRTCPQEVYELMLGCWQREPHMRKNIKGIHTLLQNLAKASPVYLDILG

T3 sequence (P28482 whole entry): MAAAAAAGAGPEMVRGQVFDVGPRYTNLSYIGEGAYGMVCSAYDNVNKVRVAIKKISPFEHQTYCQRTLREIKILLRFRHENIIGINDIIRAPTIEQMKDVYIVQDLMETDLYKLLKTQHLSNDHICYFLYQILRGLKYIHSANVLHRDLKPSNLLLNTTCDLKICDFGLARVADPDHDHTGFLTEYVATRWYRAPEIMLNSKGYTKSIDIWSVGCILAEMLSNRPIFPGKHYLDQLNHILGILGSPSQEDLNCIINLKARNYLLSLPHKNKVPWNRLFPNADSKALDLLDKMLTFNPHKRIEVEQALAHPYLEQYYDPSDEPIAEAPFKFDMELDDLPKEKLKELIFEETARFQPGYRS
T6 sequence (P17948 27-1338): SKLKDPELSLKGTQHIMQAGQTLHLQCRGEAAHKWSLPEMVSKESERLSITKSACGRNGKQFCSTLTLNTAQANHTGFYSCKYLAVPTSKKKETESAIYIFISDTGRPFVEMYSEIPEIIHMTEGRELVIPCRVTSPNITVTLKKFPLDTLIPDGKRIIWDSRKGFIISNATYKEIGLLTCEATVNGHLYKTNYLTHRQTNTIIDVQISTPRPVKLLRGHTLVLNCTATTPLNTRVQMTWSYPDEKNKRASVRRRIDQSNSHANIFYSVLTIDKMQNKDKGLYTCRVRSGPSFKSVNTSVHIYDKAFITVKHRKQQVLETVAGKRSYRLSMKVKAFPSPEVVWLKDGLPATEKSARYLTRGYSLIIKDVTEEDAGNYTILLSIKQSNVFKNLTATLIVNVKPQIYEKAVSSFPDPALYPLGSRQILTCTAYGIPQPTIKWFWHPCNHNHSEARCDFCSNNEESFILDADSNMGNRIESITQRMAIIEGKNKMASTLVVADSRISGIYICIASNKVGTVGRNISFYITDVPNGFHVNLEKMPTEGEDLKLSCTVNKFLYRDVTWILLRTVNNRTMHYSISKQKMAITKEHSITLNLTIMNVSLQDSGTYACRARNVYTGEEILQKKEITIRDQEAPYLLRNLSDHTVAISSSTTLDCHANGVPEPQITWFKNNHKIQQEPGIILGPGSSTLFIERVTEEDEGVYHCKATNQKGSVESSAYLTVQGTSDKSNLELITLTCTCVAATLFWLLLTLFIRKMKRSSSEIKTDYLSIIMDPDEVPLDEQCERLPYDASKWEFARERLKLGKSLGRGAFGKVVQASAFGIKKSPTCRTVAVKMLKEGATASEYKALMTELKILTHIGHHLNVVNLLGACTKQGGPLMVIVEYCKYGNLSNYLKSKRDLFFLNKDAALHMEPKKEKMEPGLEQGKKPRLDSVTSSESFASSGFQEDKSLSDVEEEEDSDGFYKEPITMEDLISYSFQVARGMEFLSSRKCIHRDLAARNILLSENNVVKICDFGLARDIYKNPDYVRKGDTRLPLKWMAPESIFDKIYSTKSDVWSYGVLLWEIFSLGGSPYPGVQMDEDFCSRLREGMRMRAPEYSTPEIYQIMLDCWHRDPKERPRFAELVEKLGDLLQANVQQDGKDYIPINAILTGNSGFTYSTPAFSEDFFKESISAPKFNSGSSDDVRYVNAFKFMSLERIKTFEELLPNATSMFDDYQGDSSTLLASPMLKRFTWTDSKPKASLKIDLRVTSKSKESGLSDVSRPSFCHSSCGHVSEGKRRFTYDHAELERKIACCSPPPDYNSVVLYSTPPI
T2 sequence (Q9H2X6 whole entry): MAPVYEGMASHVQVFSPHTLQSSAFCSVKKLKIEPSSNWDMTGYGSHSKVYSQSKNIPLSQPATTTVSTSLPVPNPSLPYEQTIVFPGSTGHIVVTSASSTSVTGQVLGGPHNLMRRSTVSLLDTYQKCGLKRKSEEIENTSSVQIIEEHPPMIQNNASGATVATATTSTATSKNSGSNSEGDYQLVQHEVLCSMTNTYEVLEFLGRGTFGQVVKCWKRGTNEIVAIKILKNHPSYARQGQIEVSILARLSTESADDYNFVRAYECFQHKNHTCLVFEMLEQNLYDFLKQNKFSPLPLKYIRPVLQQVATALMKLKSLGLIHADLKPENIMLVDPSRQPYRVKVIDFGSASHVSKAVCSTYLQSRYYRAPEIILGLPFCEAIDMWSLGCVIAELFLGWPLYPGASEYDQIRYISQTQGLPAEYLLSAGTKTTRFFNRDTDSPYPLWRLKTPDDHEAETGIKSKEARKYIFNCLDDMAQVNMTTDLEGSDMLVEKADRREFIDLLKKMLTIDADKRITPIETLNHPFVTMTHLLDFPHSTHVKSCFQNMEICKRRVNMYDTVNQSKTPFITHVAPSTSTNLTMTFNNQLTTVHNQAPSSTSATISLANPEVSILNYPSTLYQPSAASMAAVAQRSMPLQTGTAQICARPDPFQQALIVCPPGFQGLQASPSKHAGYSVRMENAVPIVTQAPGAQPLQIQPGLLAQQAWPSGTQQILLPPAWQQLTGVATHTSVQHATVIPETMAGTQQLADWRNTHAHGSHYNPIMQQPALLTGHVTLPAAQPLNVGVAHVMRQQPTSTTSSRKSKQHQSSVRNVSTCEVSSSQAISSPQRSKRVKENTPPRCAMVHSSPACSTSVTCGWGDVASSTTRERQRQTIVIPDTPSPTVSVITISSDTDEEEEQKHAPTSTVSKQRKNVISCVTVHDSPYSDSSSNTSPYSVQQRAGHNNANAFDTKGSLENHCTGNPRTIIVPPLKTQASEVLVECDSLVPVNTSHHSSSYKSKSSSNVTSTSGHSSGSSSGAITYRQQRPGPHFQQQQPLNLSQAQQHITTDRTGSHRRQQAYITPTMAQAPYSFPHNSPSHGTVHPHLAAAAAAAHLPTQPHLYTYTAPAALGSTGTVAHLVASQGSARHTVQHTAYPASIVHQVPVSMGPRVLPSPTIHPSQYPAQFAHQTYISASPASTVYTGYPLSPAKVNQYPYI

CNC(=O)c1ccc2c(c1)C(=O)c1ccc(Nc3ccc(F)c(NC(=O)C4CC4)c3)cc1CC2 [Compound 2015]
remaining activity at 0.2 µM (340 wild-type kinases [1]; 0.2 µM 2015, read-out: PKCnu residual activity): 88.9% | remaining activity at 1 µM (340 wild-type kinases [1]; 1 µM 2015, read-out: PKCnu residual activity): 96.9% | remaining activity at 0.2 µM (340 wild-type kinases [1]; PKCnu, 0.2 µM, read-out: residual activity): 88.9% | remaining activity at 1 µM (340 wild-type kinases [1]; PKCnu, 1 µM, read-out: residual activity): 96.9% | remaining activity at 0.2 µM (340 wild-type kinases [2]; 0.2 µM 2015, read-out: HIPK2 residual activity): 93.7% | remaining activity at 1 µM (340 wild-type kinases [2]; 1 µM 2015, read-out: HIPK2 residual activity): 97.9% | remaining activity at 0.2 µM (340 wild-type kinases [2]; HIPK2, 0.2 µM, read-out: residual activity): 93.7% | remaining activity at 1 µM (340 wild-type kinases [2]; HIPK2, 1 µM, read-out: residual activity): 97.9% | remaining activity at 0.2 µM (340 wild-type kinases [3]; 0.2 µM 2015, read-out: ERK2 residual activity): 99.1% | remaining activity at 1 µM (340 wild-type kinases [3]; 1 µM 2015, read-out: ERK2 residual activity): 90.5% | remaining activity at 0.2 µM (340 wild-type kinases [3]; ERK2, 0.2 µM, read-out: residual activity): 99.1% | remaining activity at 1 µM (340 wild-type kinases [3]; ERK2, 1 µM, read-out: residual activity): 90.5% | remaining activity at 0.2 µM (340 wild-type kinases [4]; 0.2 µM 2015, read-out: AuroraA residual activity): 98.6% | remaining activity at 1 µM (340 wild-type kinases [4]; 1 µM 2015, read-out: AuroraA residual activity): 103% | remaining activity at 0.2 µM (340 wild-type kinases [4]; AuroraA, 0.2 µM, read-out: residual activity): 98.5% | remaining activity at 1 µM (340 wild-type kinases [4]; AuroraA, 1 µM, read-out: residual activity): 103% | remaining activity at 0.2 µM (340 wild-type kinases [5]; 0.2 µM 2015, read-out: ARK5 residual activity): 96.7% | remaining activity at 1 µM (340 wild-type kinases [5]; 1 µM 2015, read-out: ARK5 residual activity): 98.5% | remaining activity at 0.2 µM (340 wild-type kinases [5]; ARK5, 0.2 µM, read-out: residual activity): 96.7% | remaining activity at 1 µM (340 wild-type kinases [5]; ARK5, 1 µM, read-out: residual activity): 98.5% | remaining activity at 0.2 µM (340 wild-type kinases [6]; 0.2 µM 2015, read-out: VEGFR1 residual activity): 113% | remaining activity at 1 µM (340 wild-type kinases [6]; 1 µM 2015, read-out: VEGFR1 residual activity): 116% | remaining activity at 0.2 µM (340 wild-type kinases [6]; VEGFR1, 0.2 µM, read-out: residual activity): 113% | remaining activity at 1 µM (340 wild-type kinases [6]; VEGFR1, 1 µM, read-out: residual activity): 116% | remaining activity at 0.2 µM (340 wild-type kinases [7]; 0.2 µM 2015, read-out: TRKB residual activity): 99.7% | remaining activity at 1 µM (340 wild-type kinases [7]; 1 µM 2015, read-out: TRKB residual activity): 91.3% | remaining activity at 0.2 µM (340 wild-type kinases [7]; TRKB, 0.2 µM, read-out: residual activity): 99.7% | remaining activity at 1 µM (340 wild-type kinases [7]; TRKB, 1 µM, read-out: residual activity): 91.3%
